Laboratory results taken from the NIST ThermoML archive (doi:10.1021/je0503857).
± gives the expanded uncertainty stated by the source.

Tests used:
[1] = molar heat capacity at constant pressure; conditions: 298.15 K; 101.33 kPa; Crystal; Small sample (50 mg) DSC
[2] = Molar enthalpy of transition or fusion; conditions: DSC
[3] = for Normal melting temperature: Crystal, DTA; for vapor or sublimation pressure: Liquid, Gas chromatography

Row | SMILES | molar heat capacity at constant pressure [1] | Molar enthalpy of transition or fusion ([2]; Crystal) | Normal melting temperature [3] | vapor or sublimation pressure ([3]; 298.15 K) | vapor or sublimation pressure ([3]; 300 K) | vapor or sublimation pressure ([3]; 330 K) | vapor or sublimation pressure ([3]; 360 K) | vapor or sublimation pressure ([3]; 390 K) | vapor or sublimation pressure ([3]; 420 K) | vapor or sublimation pressure ([3]; 450 K) | vapor or sublimation pressure ([3]; 480 K) | vapor or sublimation pressure ([3]; 510 K) | Molar enthalpy of transition or fusion ([2]; Crystal 2)
1 | CCCCCCCCCCCCCC(O)CCC (configuration not stated) [4-heptadecanol] | 472.6 ± 9.5 J/K/mol | 8.53 ± 0.239 kcal/mol | 38.4 ± 0.5 °C |  |  |  |  |  |  |  |  |  | 
2 | CCCCCCCCCCCC(O)CCCCC (configuration not stated) [6-heptadecanol] | 472.6 ± 9.5 J/K/mol | 11.7 ± 0.311 kcal/mol | 42.7 ± 0.5 °C | 1.813e-06 ± 1.9e-07 kPa | 2.363e-06 ± 2.5e-07 kPa | 0.0001082 ± 1.1e-05 kPa | 0.002283 ± 0.00023 kPa | 0.02614 ± 0.0026 kPa | 0.1853 ± 0.019 kPa | 0.901 ± 0.09 kPa | 3.255 ± 0.33 kPa | 9.287 ± 0.93 kPa | 
3 | CCCCCCCCCCC(O)CCCCCC (configuration not stated) [7-heptadecanol] | 472.6 ± 9.5 J/K/mol | 6.88 ± 0.215 kcal/mol | 41.2 ± 0.5 °C | 1.959e-06 ± 2.1e-07 kPa | 2.552e-06 ± 2.7e-07 kPa | 0.0001153 ± 1.2e-05 kPa | 0.002406 ± 0.00024 kPa | 0.0273 ± 0.0027 kPa | 0.192 ± 0.019 kPa | 0.9282 ± 0.093 kPa | 3.337 ± 0.33 kPa | 9.481 ± 0.95 kPa | 
4 | CCCCCCCCCCCCCCCCCCCCCCO [1-docosanol] | 625 ± 13 J/K/mol | 19.8 ± 0.526 kcal/mol | 71.4 ± 0.5 °C |  |  | 5.89e-07 ± 7.1e-08 kPa | 2.687e-05 ± 2.7e-06 kPa | 0.000588 ± 5.9e-05 kPa | 0.007063 ± 0.00071 kPa | 0.0523 ± 0.0052 kPa | 0.2627 ± 0.026 kPa | 0.9664 ± 0.097 kPa | 
5 | CCCCCCCCC(O)CCCCCCCC [9-heptadecanol] | 472.6 ± 9.5 J/K/mol | 10.3 ± 0.287 kcal/mol | 57.1 ± 0.5 °C | 1.895e-06 ± 2e-07 kPa | 2.471e-06 ± 2.6e-07 kPa | 0.0001127 ± 1.1e-05 kPa | 0.002368 ± 0.00024 kPa | 0.02704 ± 0.0027 kPa | 0.1913 ± 0.019 kPa | 0.929 ± 0.093 kPa | 3.354 ± 0.34 kPa | 9.568 ± 0.96 kPa | 
6 | CC(C)CCC[C@@H](C)[C@H]1CC[C@H]2[C@@H]3CC=C4C[C@@H](O)CC[C@]4(C)[C@H]3CC[C@]12C [.DELTA.5-cholesten-3β-ol] |  |  |  | 7.557e-11 kPa | 1.065e-10 kPa | 1.71e-08 ± 1.2e-08 kPa | 1.132e-06 ± 1.2e-07 kPa | 3.397e-05 ± 3.4e-06 kPa | 0.0005237 ± 5.3e-05 kPa | 0.004678 ± 0.00047 kPa | 0.02685 ± 0.0027 kPa | 0.1078 ± 0.011 kPa | 
7 | CCCCCCCCCCCCCCCCCCCCCCCCCCO [1-hexacosanol] | 732.6 ± 15 J/K/mol | 24.8 ± 0.645 kcal/mol | 80.0 ± 0.5 °C | 6.401e-11 kPa | 9.145e-11 kPa | 1.78e-08 ± 1.2e-08 kPa | 1.364e-06 ± 1.5e-07 kPa | 4.614e-05 ± 4.6e-06 kPa | 0.0007898 ± 7.9e-05 kPa | 0.007756 ± 0.00078 kPa | 0.0486 ± 0.0049 kPa | 0.212 ± 0.021 kPa | 

Next, values leading:

Row | molar heat capacity at constant pressure [1] | Molar enthalpy of transition or fusion ([2]; Crystal) | Normal melting temperature [3] | vapor or sublimation pressure ([3]; 298.15 K) | vapor or sublimation pressure ([3]; 300 K) | vapor or sublimation pressure ([3]; 330 K) | vapor or sublimation pressure ([3]; 360 K) | vapor or sublimation pressure ([3]; 390 K) | vapor or sublimation pressure ([3]; 420 K) | vapor or sublimation pressure ([3]; 450 K) | vapor or sublimation pressure ([3]; 480 K) | vapor or sublimation pressure ([3]; 510 K) | Molar enthalpy of transition or fusion ([2]; Crystal 2) | SMILES
8 | 571.2 ± 11 J/K/mol |  | 64 ± 1 °C | 3.215e-08 ± 1.3e-08 kPa | 4.345e-08 ± 1.4e-08 kPa | 3.509e-06 ± 3.6e-07 kPa | 0.0001228 ± 1.2e-05 kPa | 0.002151 ± 0.00021 kPa | 0.02156 ± 0.0022 kPa | 0.1382 ± 0.014 kPa | 0.6201 ± 0.062 kPa | 2.091 ± 0.21 kPa | 18.7 ± 0.502 kcal/mol | CCCCCCCCCCCCCCCCCCCCO [1-eicosanol]
9 | 517.4 ± 10 J/K/mol |  | 52.5 ± 5 °C |  |  |  |  |  |  |  |  |  | 16.6 ± 0.43 kcal/mol | CCCCCCCCCCCCCCCCCCO [1-octadecanol]
10 | 490.5 ± 9.8 J/K/mol |  | 52.2 ± 0.5 °C | 6.86e-07 ± 7.9e-08 kPa | 9.02e-07 ± 1e-07 kPa | 4.724e-05 ± 4.8e-06 kPa | 0.001125 ± 0.00011 kPa | 0.01426 ± 0.0014 kPa | 0.1098 ± 0.011 kPa | 0.571 ± 0.057 kPa | 2.174 ± 0.22 kPa | 6.457 ± 0.65 kPa | 15.2 ± 0.406 kcal/mol | CCCCCCCCCCCCCCCCCO [1-heptadecanol]
